Measured values as given in ChEMBL document CHEMBL1137137, “A novel series of 2-pyridyl-containing compounds as lysophosphatidic acid receptor antagonists: development of a nonhydrolyzable LPA3 receptor-selective antagonist” (Bioorg Med Chem Lett, 2004).

How the values were obtained:
[1] = target: T1, Lysophosphatidic acid receptor 3 (Homo sapiens, UniProt Q9UBY5); assay: Antagonist activity at Lysophosphatidic acid 3 (LPA3) receptor
T1 sequence (Q9UBY5 whole entry): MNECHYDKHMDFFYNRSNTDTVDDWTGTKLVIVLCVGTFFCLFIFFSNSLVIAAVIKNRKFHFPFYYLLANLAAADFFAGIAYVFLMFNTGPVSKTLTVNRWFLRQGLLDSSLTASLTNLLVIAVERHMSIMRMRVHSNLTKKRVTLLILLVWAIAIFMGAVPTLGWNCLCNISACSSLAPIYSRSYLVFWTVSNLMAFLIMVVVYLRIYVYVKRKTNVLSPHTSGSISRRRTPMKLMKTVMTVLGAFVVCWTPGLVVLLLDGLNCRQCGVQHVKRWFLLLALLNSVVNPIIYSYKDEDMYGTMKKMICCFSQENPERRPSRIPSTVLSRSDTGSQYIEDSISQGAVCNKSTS

[2] = target: T2, Lysophosphatidic acid receptor 1 (Homo sapiens, UniProt Q92633); assay: Inhibitory concentration against Lysophosphatidic acid 1 (LPA1) receptor
[3] = target: T2, Lysophosphatidic acid receptor 1; assay: Binding affinity towards Lysophosphatidic acid 1 (LPA1) receptor

T2 sequence (Q92633 whole entry): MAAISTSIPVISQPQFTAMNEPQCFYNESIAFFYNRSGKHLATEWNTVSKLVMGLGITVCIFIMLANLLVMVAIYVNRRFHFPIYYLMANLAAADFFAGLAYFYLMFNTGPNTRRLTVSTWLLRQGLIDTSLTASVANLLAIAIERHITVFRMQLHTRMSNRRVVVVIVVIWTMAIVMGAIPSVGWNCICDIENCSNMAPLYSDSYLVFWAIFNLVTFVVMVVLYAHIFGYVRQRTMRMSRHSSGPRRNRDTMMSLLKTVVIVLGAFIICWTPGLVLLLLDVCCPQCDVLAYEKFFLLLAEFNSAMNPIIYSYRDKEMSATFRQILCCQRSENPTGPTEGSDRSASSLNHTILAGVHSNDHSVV

Row | SMILES | IC50 [1] | IC50 [2] | Ki [3]
1 | CCCCCCCC/C=C\CCCCCCCC(=O)N[C@H](CCP(=O)(O)O)Cc1ccc(OCc2ccccn2)cc1 | > 10000 nM | > 10000 nM | –
2 | CCCCCCCC/C=C\CCCCCCCC(=O)N[C@H](COP(=O)(O)O)Cc1ccc(OCc2ncc(C)c(OC)c2C)cc1 | 561 nM | 3690 nM | –
3 | CCCCCCCC/C=C\CCCCCCCC(=O)N[C@@H](CCP(=O)(O)O)Cc1ccc(OCc2ccccn2)cc1 | > 10000 nM | > 10000 nM | –
4 | CCCCCCCC/C=C\CCCCCCCC(=O)N[C@H](COP(=O)(O)O)Cc1ccc(OCc2cc(OC)c3ccccc3n2)cc1 | 2600 nM | > 10000 nM | –
5 | CCCCCCCC/C=C\CCCCCCCC(=O)N[C@@H](COP(=O)(O)O)Cc1ccc(OCc2cccnc2)cc1 | 1690 nM | 992 nM | –
6 | CCCCCCCC/C=C\CCCCCCCC(=O)N[C@@H](COP(=O)(O)O)Cc1ccc(OCc2cc(OCCC)ccn2)cc1 | 1660 nM | 141 nM | 64 nM
7 | CCCCCCCC/C=C\CCCCCCCC(=O)N[C@H](COP(=O)(O)O)Cc1ccc(OCc2ccccn2)cc1 | 940 nM | – | –
8 | CCCCCCCCCCCCCCCC(=O)N[C@H](CCP(=O)(O)O)Cc1ccc(OCc2ccccn2)cc1 | 1050 nM | > 10000 nM | –
9 | CCCCCCCC/C=C\CCCCCCCC(=O)N[C@H](COP(=O)(O)O)Cc1ccc(OCc2ccncc2)cc1 | 6960 nM | > 10000 nM | –
10 | CCCCCCCC/C=C\CCCCCCCC(=O)N[C@@H](COP(=O)(O)O)Cc1ccc(OCc2ccncc2)cc1 | 2080 nM | 735 nM | –
11 | CCCCCCCC/C=C\CCCCCCCC(=O)N[C@H](COP(=O)(O)O)Cc1ccc(OCc2cccnc2)cc1 | 6240 nM | 4500 nM | –
12 | CCCCCCCC/C=C\CCCCCCCC(=O)N[C@@H](COP(=O)(O)O)Cc1ccc(OCc2cc(OC)c3ccccc3n2)cc1 | 1160 nM | 962 nM | –
13 | CCCCCCCC/C=C\CCCCCCCC(=O)N[C@H](CCP(=O)(O)O)Cc1ccc(OCc2ncc(C)c(OC)c2C)cc1 | 4000 nM | > 10000 nM | –
14 | CCCCCCCC/C=C\CCCCCCCC(=O)N[C@H](COP(=O)(O)O)Cc1ccc(OCc2cccc(OC)n2)cc1 | 1090 nM | > 10000 nM | –

These reach a lower IC50 [1]. Values come first.

Row | IC50 [1] | IC50 [2] | Ki [3] | SMILES
15 | 232 nM | 4230 nM | – | CCCCCCCC/C=C\CCCCCCCC(=O)N[C@@H](Cc1ccc(OCc2ccccc2)cc1)CC(O)P(=O)(O)O (stereo partly specified)
16 | 423 nM | 114 nM | 35 nM | CCCCCCCC/C=C\CCCCCCCC(=O)N[C@@H](COP(=O)(O)O)Cc1ccc(OCc2cc(OCCOC)ccn2)cc1
17 | 150 nM | > 10000 nM | – | CCCCCCCC/C=C\CCCCCCCC(=O)N[C@@H](CCP(=O)(O)O)Cc1ccc(OCc2ncc(C)c(OC)c2C)cc1
18 | 39 nM | 143 nM | 26 nM | CCCCCCCC/C=C\CCCCCCCC(=O)N[C@@H](COP(=O)(O)O)Cc1ccc(OCc2cc(OCC)ccn2)cc1
19 | 48 nM | 84 nM | 19 nM | CCCCCCCC/C=C\CCCCCCCC(=O)N[C@@H](COP(=O)(O)O)Cc1ccc(OCc2cc(OCC(F)(F)F)ccn2)cc1
20 | 455 nM | 2840 nM | – | CCCCCCCC/C=C\CCCCCCCC(=O)N[C@@H](COP(=O)(O)O)Cc1ccc(OCc2cccc(OC)n2)cc1
21 | 102 nM | 6250 nM | – | CCCCCCCC/C=C\CCCCCCCC(=O)N[C@@H](COP(=O)(O)O)Cc1ccc(OCc2cc(OC)ccn2)cc1
22 | 533 nM | 1430 nM | – | CCCCCCCC/C=C\CCCCCCCC(=O)N[C@@H](COP(=O)(O)O)Cc1ccc(OCc2ccc3ccccc3n2)cc1
23 | 39 nM | 62 nM | 28 nM | CCCCCCCC/C=C\CCCCCCCC(=O)N[C@@H](COP(=O)(O)O)Cc1ccc(OCc2ncc(C)c(OC)c2C)cc1
24 | 175 nM | – | – | CCCCCCCC/C=C\CCCCCCCC(=O)N[C@@H](COP(=O)(O)O)Cc1ccc(OCc2ccccn2)cc1
